In publication PMC2585076, “Development of selective blockers for Ca^2+-activated Cl^- channel using Xenopus laevis oocytes with an improved drug screening strategy” (Molecular Brain, 2008) one finds IC50 data, which are given here for three compounds.

The target in assay [1] is T1, Ca^2+-activated Cl^- channel (CaCC) (Xenopus laevis, UniProt B5SVV6). Particulars: endogenous CaCCs in Xenopus laevis oocytes, TEVC; read-out: IC50 * (IC50 previously studied); cited from earlier work.
Assay [2] has as its target T1, Ca^2+-activated Cl^- channel (CaCC). It counts as cell-based. Particulars: block of Cl^- current induced by 5 mM external Ca^2+, ionomycin then thapsigargin treated oocytes, chelerythrine in intracellular solution, holding potential -60 mV.
Protocol: To exclude the effect of PKC in CaCC current, PKC inhibitor chelerythrine was added to the intracellular solution. […] Additional variability in peak amplitude can come from the Ca^2+ induced Ca^2+ release from intracellular stores. To eliminate the contribution of Ca^2+ release from intracellular stores, Ca^2+ ATPase inhibitor, thapsigargin was treated on ionomycin pretreated oocytes. […] Therefore, a reliable protocol for drug screening of CaCCs in Xenopus oocytes was established with treatment of 1 μM thapsigargin for 90 min to ionomycin treated oocytes followed by recording with microelectrodes filled with intracellular solution containing 1 μM chelerythrine.
Using the optimized drug screening protocol, the effect of known blockers of CaCC was tested.
The animals were anaesthetized by cooling with ice [30]. Ovarian follicles were surgically removed, treated with 2 mg/ml collagenase type IA at room temperature for 90 min in Ca^2+ free Barth's solution containing 89 mM NaCl, 1.0 mM KCl, 2.4 mM NaHCO3, 0.82 mM MgSO4 and 10 mM HEPES (pH 7.4). […]

Read-outs that look alike come from different tables or passages of the source.

T1 sequence (B5SVV6 entry or part of it): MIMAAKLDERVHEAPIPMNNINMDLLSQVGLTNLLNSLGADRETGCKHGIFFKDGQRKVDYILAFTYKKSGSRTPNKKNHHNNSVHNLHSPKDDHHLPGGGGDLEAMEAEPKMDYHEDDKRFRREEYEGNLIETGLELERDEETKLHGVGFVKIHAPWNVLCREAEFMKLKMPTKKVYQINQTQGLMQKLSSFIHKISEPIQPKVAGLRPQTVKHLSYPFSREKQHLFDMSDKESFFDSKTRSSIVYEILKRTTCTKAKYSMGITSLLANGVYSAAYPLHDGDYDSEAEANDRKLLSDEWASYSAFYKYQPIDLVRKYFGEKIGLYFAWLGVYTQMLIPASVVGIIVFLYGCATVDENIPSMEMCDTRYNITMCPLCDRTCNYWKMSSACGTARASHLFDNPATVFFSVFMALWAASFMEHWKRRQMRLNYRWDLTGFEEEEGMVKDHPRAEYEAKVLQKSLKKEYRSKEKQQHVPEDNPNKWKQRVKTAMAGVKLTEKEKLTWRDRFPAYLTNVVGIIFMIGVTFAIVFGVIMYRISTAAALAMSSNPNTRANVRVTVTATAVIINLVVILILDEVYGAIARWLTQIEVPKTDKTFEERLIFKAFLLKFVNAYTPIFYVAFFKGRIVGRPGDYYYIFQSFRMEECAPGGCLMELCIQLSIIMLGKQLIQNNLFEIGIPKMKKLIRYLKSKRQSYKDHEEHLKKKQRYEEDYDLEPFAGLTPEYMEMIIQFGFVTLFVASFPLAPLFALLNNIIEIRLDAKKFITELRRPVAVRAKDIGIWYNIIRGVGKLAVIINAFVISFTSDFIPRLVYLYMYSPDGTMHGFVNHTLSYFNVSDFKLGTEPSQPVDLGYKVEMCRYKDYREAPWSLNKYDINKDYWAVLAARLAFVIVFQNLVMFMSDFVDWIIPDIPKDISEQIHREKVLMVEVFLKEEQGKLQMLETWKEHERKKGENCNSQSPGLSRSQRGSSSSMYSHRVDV

Consider `O=C(O)c1ccccc1Nc1ccccc1` [DPC, diphenylamine-2-carboxylate], for which the IC50 in assay [1] is 111 µM. With `O=C(O)c1ccccc1Nc1ccccc1[N+](=O)[O-]` [N-(2-Nitrophenyl)-anthranilic acid], in assay [2], the IC50 entry was “low potency”. Consider `O=C(O)c1ccccc1Nc1ccc(C(F)(F)F)cc1` [N-(4-trifluoromethylphenyl)anthranilic acid], for which, in assay [2] (read-out: IC50), the IC50 came out at 6 µM.

As a reminder, the IC50 is the concentration that gives 50% inhibition.
